Laboratory results from US6268391A, “Benzylidene-1,3-dihydro-indol-2-one derivatives a receptor tyrosine kinase inhibitors, particularly of Raf kinases” (Glaxo Wellcome Inc., priority 1997, dated 2001).

These compounds were tested against T1, Human cRaf1 (Homo sapiens, UniProt P04049) (assay: Raf kinase assay (cRaf1 assay / Raf/MEK cascade assay)). Details: Table 3; read-out: Raf Kinase activity.
T1 construct: poly-histidine (C); made in house
Format: biochemical
Experimental: The potency of cRaf1 dependent kinase activity was measured using one of two assay formats. The first measured cRaf1 catalyzed phosphorylation of MEK1, the natural substrate for cRaf1. This assay is referred to as the cRaf1 assay. The second measured the ability of cRaf1 to phosphorylate and activate MEK1. This assay is referred to as the Raf/MEK cascade assay.
Human cRaf1 tagged with poly histidine at the carboxyterminus was expressed in a baculovirus expression system and purfied by Ni chelate affinity chromatography. Human MEK1 was expressed in E. coli as a fusion protein with Glutathione-S-transferase, and purified by glutathione sepharose affinity chromatography. […] Reactions contained cRaf1 (20 nM), MEK1 (100-500 nM), [γ-^32 P]ATP ([…]), Mg^2+ (10 mM), MOPS (50 mM, pH 7.5). Reactions were incubated at room temperature for periods of time ranging from 20-120 minutes. Inhibitors were diluted in 100% DMSO prior to addition to the assay. Reactions were terminated with an equal volume of 0.5% phosphoric acid. MEK1 phosphorylation was detected by scintillation counting following collection of protein onto phosphocellulose filters.
Human cRaf1 and MEK1 were purified as described above. A peptide substrate phosphorylated by MEK1 was used as the final phosphoryl group acceptor. […] Assay conditions were the same as those described above except for the following modifications. Reactions contained cRaf1 (1-5 nM), MEK1 (60 nM), and peptide ([…]).

Compound | IC50
2,6-Dibromo-4-[(5-glycoloyl-2-oxo-1,2-dihydro-3H-indol-3-ylidene)methyl]phenyl ethyl carbonate [Example 155] | 10000 to 100000 nM
3-(3,5-Dibromo-4-hydroxy-benzylidene)-5-(3-methylimidazol-1-yl-acetyl)-1,3-dihydro-indol-2-one [Example 71] | < 1000 nM
3-(3-Bromo-4-hydroxy-5-ethoxy-benzylidene)-5-(2-dimethylamino-acetyl)-1,3-dihydro-indol-2-one [Example 111] | < 1000 nM
5-{2-[N-Benzyl-N-(2-hydroxy-acetyl)-amino]-ethyl}-3-(3,5-dibromo-4-hydroxy-benzylidene)-1,3-dihydro-indol-2-one [Example 78] | < 1000 nM
CCOc1cc(C=C2C(=O)Nc3ccc(-c4csc(C)n4)cc32)cc(Br)c1O [Example 3, 3-(3-Bromo-5-ethoxy-4-hydroxy-benzylidene)-5-(2-methyl-thiazol-4-yl)-1,3-dihydro-indol-2-one] | < 1000 nM
Cc1nc(-c2ccc3c(c2)C(=Cc2cc(Cl)c(O)c(Cl)c2)C(=O)N3)cs1 [Example 4] | < 1000 nM
CC(C)CC(=O)c1ccc2c(c1)C(=Cc1cc(Br)c(O)c(Br)c1)C(=O)N2 [Example 5] | < 1000 nM
O=C1Nc2ccc(C(=O)c3ccccc3)cc2C1=Cc1cc(Br)c(O)c(Br)c1 [Example 6, 5-Benzoyl-3-(3,5-dibromo-4-hydroxy-benzylidene)-1,3 dihydro-indol-2-one] | < 1000 nM
O=C1Nc2ccc(C(=O)c3ccccc3)cc2C1=Cc1cc(Cl)c(O)c(Cl)c1 [Example 7, 5-Benzoyl-3-(3,5-dichloro-4-hydroxy-benzylidene)-1,3-dihydro-indol-2-one] | < 1000 nM
CC(C)CC(=O)c1ccc2c(c1)C(=Cc1cc(Cl)c(O)c(Cl)c1)C(=O)N2 [Example 9] | < 1000 nM
CCOc1cc(C=C2C(=O)Nc3ccc(C(=O)CC(C)C)cc32)cc(Br)c1O [Example 10, 3-(3-Bromo-5-ethoxy-4-hydroxy-benzylidene)-5-(3-methyl-butanoyl)-1,3-dihydro-indol-2-one] | < 1000 nM
O=C1Nc2ccc(C(=O)c3cccnc3)cc2C1=Cc1cc(Br)c(O)c(Br)c1 [Example 11] | < 1000 nM
O=C1Nc2ccc(C(=O)c3cccnc3)cc2C1=Cc1cc(Cl)c(O)c(Cl)c1 [Example 12, 3-(3,5-Dichloro-4-hydroxy-benzylidiene)-5-(pyridine-3-carbonyl)-1,3-dihydro-indol-2-one] | < 1000 nM
O=C1Nc2ccc(C(=O)c3ccncc3)cc2C1=Cc1cc(Br)c(O)c(Br)c1 [Example 13, 3-(3,5-Dibromo-4-hydroxy-benzylidene)-5-(pyridine-4-carbonyl)-1,3-dihydro-indol-2-one] | < 1000 nM
CCOc1cc(C=C2C(=O)Nc3ccc(C(=O)c4ccncc4)cc32)cc(Br)c1O [Example 14, 3-(3-Bromo-5-ethoxy-4-hydroxy-benzylidene)-5-(pyridine-4-carbonyl)-1,3-dihydro-indol-2-one] | < 1000 nM
O=C1Nc2ccc(C(=O)c3ccncc3)cc2C1=Cc1cc(Cl)c(O)c(Cl)c1 [Example 15, 3-(3,5-Dichloro-4-hydroxy-benzylidene)-5-(pyridine-4-carbonyl)-1,3-dihydro-indol-2-one] | < 1000 nM
CCOc1cc(C=C2C(=O)Nc3ccc(C(=O)c4cccnc4)cc32)cc(Br)c1O [Example 16, 3-(3-Bromo-5-ethoxy-4-hydroxy-benzylidene)-5-(pyridine-3-carbonyl)-1,3-dihydro-indol-2-one] | < 1000 nM

Compound | IC50
O=C1Nc2ccc(-c3cnco3)cc2C1=Cc1cc(Cl)c(O)c(Cl)c1 [Example 17] | < 1000 nM
O=C1Nc2ccc(-c3cnco3)cc2C1=Cc1cc(Br)c(O)c(Br)c1 [Example 18, 3-(3,4-Dibromo-4-hydroxy-benzylidene)-5-(oxazol-5-yl)-1,3-dihydro-indol-2-one] | < 1000 nM
CCc1nc(-c2ccc3c(c2)C(=Cc2cc(Br)c(O)c(Br)c2)C(=O)N3)cs1 [Example 19, 3-(3,5-Dibromo-4-hydroxy-benzylidene)-5-(2-ethyl-thiazol-4-yl)-1,3-dihydro-indol-2-one] | < 1000 nM
COC(=O)c1ccc2c(c1)C(=Cc1cc(Br)c(O)c(Br)c1)C(=O)N2 [Example 20, 3-(3,5-Dibromo-4-hydroxy-benzylidene)-2-oxo-2,3-dihydro-1H-indol-5-carboxylic acid methyl ester] | < 1000 nM
O=C1Nc2ccc(C(=O)c3ccco3)cc2C1=Cc1cc(Br)c(O)c(Br)c1 [Example 21] | < 1000 nM
O=C1Nc2ccc(C(=O)c3ccco3)cc2C1=Cc1cc(Cl)c(O)c(Cl)c1 [Example 22] | < 1000 nM
CCOc1cc(C=C2C(=O)Nc3ccc(C(=O)c4ccco4)cc32)cc(Br)c1O [Example 23] | < 1000 nM
O=C1Nc2ccc(C(=O)C3CC3)cc2C1=Cc1cc(Br)c(O)c(Br)c1 [Example 24, 5-Cyclopropanecarbonyl-3-(3,5-dibromo-4-hydroxy-benzylidene)-1,3-dihydro-indol-2-one] | < 1000 nM
O=C1Nc2ccc(C(=O)C3CCCC3)cc2C1=Cc1cc(Br)c(O)c(Br)c1 [Example 26, 5-Cyclopentanecarbonyl-3-(3,5-dibromo-4-hydroxy-benzylidene)-1,3-dihydro-indol-2-one] | < 1000 nM
COC(=O)c1ccc2c(c1)C(=Cc1cc(Cl)c(O)c(Cl)c1)C(=O)N2 [Example 27, 3-(3,5-Dichloro-4-hydroxy-benzylidene)-2-oxo-2,3-dihydro-1H-indole-5-carboxylic acid methyl ester] | < 1000 nM
O=C1Nc2ccccc2C1=Cc1cc(Br)c(O)c(Br)c1 [Example 28, 3-(3,5-Dibromo-4-hydroxy-benzylidene)-1,3-dihydro-indol-2-one] | 1000 to 10000 nM
O=C1Nc2ccc(C(=O)c3cccs3)cc2C1=Cc1cc(Br)c(O)c(Br)c1 [Example 29, 3-(3,5-Dibromo-4-hydroxy-benzylidene)-5-(thiophene-2-carbonyl)-1,3-dihydro-indol-2-one] | < 1000 nM
Nc1nc(-c2ccc3c(c2)C(=Cc2cc(Br)c(O)c(Br)c2)C(=O)N3)cs1 [Example 30, 5-(2-Amino-thiazol-4-yl)-3-(3,5-dibromo-4-hydroxy-benzylidene)-1,3-dihydro-indol-2-one] | < 1000 nM
O=C1Nc2ccc(-c3cn4ccccc4n3)cc2C1=Cc1cc(Br)c(O)c(Br)c1 [Example 31, 3-(3,5-Dibromo-4-hydroxy-benzylidene)-5-(imidazo[1,2a]pyridin-2-yl)-1,3-dihydro-indol-2-one] | < 1000 nM
CCC(=O)c1ccc2c(c1)C(=Cc1cc(Br)c(O)c(Br)c1)C(=O)N2 [Example 32, 3-(3,5-Dibromo-4-hydroxy-benzylidene)-5-propionyl-1,3-dihydro-indol-2-one] | < 1000 nM
NS(=O)(=O)c1ccc2c(c1)C(=Cc1cc(Br)c(O)c(Br)c1)C(=O)N2 [Example 33, 3-(3,5-Dibromo-4-hydroxy-benzylidene)-2-oxo-2,3-dihydro-1H-indole-5-sulfonic acid amide] | < 1000 nM
CCN(CC)S(=O)(=O)c1ccc2c(c1)C(=Cc1cc(Br)c(O)c(Br)c1)C(=O)N2 [Example 34, 3-(3,5-Dibromo-4-hydroxy-benzylidene)-2-oxo-2,3 dihydro-1H-indole-5-sulfonic acid N,N-diethylamide] | < 1000 nM
